For assay [1], the target named is full-length human PRMT8 isoform 1 (Homo sapiens, UniProt Q9NR22). Briefly: PRMT8 Biochemical Assay (3H-SAM Flashplate, peptide substrate). Particulars: read-out: Biochemical IC50 PRMT8. Put shortly:
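Full-length human PRMT8 (1.5 nM, E. coli-expressed, GST removed) preincubated 30 min at room temperature with compound, then reacted with 50 nM 3H-SAM plus 550 nM cold SAM and 150 nM biotinylated H4 31-45 peptide in 20 mM Bicine pH 7.6, 1 mM TCEP, 0.005% BSG, 0.002% Tween 20, 2% DMSO. Quenched with 400 uM cold SAM; labelled peptide captured on streptavidin Flashplate, % inhibition versus 1 mM SAH and DMSO controls fitted to 4- or 3-parameter curve.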

Assay [2] addresses full-length human PRMT1 isoform 1 (GST-tagged) (Homo sapiens, UniProt Q99873). Briefly: PRMT1 Biochemical Assay (3H-SAM Flashplate, peptide substrate). Put shortly:
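GST-tagged full-length PRMT1 from baculovirus-infected cells, preincubated 30 min at room temperature with compound in 20 mM Bicine pH 7.6, TCEP, BSG, Tween 20. Reaction started with 3H-SAM plus biotinylated peptide, stopped with 300 uM unlabelled SAM. Streptavidin Flashplate capture and scintillation counting; % inhibition curve-fitted for IC50.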

Setting [3] is: single experiment or average of multiple experiments.

SMILES strings stand for the structures. Counter-ions that a name gives are not always drawn. Like-named read-outs stand apart in the source and are kept apart here.

Sequence of full-length human PRMT8 isoform 1 (Q9NR22 whole entry, canonical isoform): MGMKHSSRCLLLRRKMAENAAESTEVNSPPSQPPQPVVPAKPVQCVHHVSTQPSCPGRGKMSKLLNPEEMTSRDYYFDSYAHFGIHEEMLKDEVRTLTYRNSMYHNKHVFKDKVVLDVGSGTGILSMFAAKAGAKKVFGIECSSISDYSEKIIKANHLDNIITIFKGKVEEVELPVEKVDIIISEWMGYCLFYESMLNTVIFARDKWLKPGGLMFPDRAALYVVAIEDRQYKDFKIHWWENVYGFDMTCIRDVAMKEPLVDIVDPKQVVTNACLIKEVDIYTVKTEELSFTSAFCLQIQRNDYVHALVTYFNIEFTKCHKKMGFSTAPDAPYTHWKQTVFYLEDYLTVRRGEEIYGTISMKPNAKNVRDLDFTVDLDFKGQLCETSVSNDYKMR
Sequence of full-length human PRMT1 isoform 1 (GST-tagged) (Q99873 with tags, fused parts or gaps): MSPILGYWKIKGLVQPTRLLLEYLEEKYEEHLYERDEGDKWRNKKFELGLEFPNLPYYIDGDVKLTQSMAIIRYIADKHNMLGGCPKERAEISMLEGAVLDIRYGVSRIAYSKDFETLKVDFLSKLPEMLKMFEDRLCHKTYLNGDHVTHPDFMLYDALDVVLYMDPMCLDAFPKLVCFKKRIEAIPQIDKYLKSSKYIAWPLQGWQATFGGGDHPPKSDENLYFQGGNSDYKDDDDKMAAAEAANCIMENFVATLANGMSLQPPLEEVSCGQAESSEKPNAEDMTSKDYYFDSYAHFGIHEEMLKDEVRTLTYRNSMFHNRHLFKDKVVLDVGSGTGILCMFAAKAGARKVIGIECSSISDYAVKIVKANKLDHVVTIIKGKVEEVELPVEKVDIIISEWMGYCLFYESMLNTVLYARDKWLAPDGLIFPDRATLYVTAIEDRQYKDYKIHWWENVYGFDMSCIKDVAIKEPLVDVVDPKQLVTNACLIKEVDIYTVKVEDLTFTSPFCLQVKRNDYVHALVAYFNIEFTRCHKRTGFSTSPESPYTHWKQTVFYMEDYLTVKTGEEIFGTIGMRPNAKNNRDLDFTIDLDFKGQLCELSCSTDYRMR

With `CNCCN(C)Cc1cnn(C)c1[C@H]1CC[C@@]2(CC1)CC(C)(C)CO2` [Compound 245, Methyl ([2-[methyl([1-methyl-5-[(5S,8S)-3,3-dimethyl-1-oxaspiro[4.5]decan-8-yl]-1H-pyrazol-4-yl]methyl)amino]ethyl])amine trifluoroacetic acid salt], the IC50 is under 100 nM in assay [1], 18.3 nM in assay [1] (setting [3]), under 100 nM in assay [2] and 18.5 nM in assay [2] (setting [3]).

Take `CNCCN(C)Cc1n[nH]cc1[C@H]1CC[C@@]2(CC1)CC(C)(C)CO2` [Compound 200, Methyl[2-(methylamino)ethyl]([4-[(5S,8S)-3,3-dimethyl-1-oxaspiro[4.5]decan-8-yl]-1H-pyrazol-3-yl]methyl)amine trifluoroacetic acid salt]: the half-maximal inhibitory concentration (IC50) in assay [1] and in assay [2] was under 100 nM each time.

As to `CNCCN(C)Cc1c[nH]nc1[C@H]1CC[C@]2(CCN(Cc3cc(F)cc(F)c3)C2=O)CC1` [Compound 197], the IC50 in assay [1] is under 100 nM; in assay [1] (setting [3]), 15.6 nM; in assay [2] it was under 100 nM; in assay [2] (setting [3]), 8.27 nM.

As to `CNCCN(C)Cc1c[nH]nc1[C@H]1CC[C@H](N(CCCOC)C(=O)CCC(C)C)CC1` [Compound 243], the half-maximal inhibitory concentration (IC50) in assay [1] is under 100 nM; in assay [1] (setting [3]) it was 70.8 nM; in assay [2], under 100 nM; in assay [2] (setting [3]), 32.4 nM.

As to `CNCCN(C)Cc1c[nH]nc1[C@H]1CC[C@H](N(CCOc2ccccc2)C(=O)CC(C)C)CC1` [Compound 223], the IC50 in assay [1] is under 100 nM; in assay [1] (setting [3]), 8.65 nM; in assay [2], under 100 nM; in assay [2] (setting [3]), 6.65 nM.

As for `CNCCN(C)Cc1c[nH]nc1[C@H]1CC[C@@H](N(CCCOC)C(=O)CC(C)C)CC1` [Compound 242], the IC50 is under 100 nM in assay [1], 83.7 nM in assay [1] (setting [3]), under 100 nM in assay [2] and 28.3 nM in assay [2] (setting [3]).

On to `CNCCN(C)Cc1c[nH]nc1C1CCC(C)(C)[C@H](C(=O)NCC(C)C)C1` (stereo partly shown) [Compound 262], for which the IC50 was under 100 nM in assay [1], 72.4 nM in assay [1] (setting [3]), under 100 nM in assay [2] and 33.7 nM in assay [2] (setting [3]).

As for `CCN(C(=O)CC(C)C)[C@H]1CC[C@H](c2n[nH]cc2CN(C)CCNC)CC1` [Compound 239], the IC50 was under 100 nM in assay [1], 13.2 nM in assay [1] (setting [3]), under 100 nM in assay [2] and 6.55 nM in assay [2] (setting [3]).

As for `CNCCN(C)Cc1c[nH]nc1C1CCC(=O)N(Cc2ccc(C(F)(F)F)cc2)C1` (stereo not shown) [Compound 191], the IC50 is 101 to 1000 nM in assay [1], 152 nM in assay [1] (setting [3]), under 100 nM in assay [2] and 50.4 nM in assay [2] (setting [3]).

With `CCN(C(=O)CC1CCOCC1)[C@H]1CC[C@@H](c2n[nH]cc2CN(C)CCNC)CC1` [Compound 196], the IC50 in assay [1] is 101 to 1000 nM; in assay [1] (setting [3]), 415 nM; in assay [2], 101 to 1000 nM; in assay [2] (setting [3]), 149 nM.

For the molecule `CCN(C(=O)CC1CCOCC1)[C@H]1CC[C@H](c2n[nH]cc2CN(C)CCNC)CC1` [Compound 195], the IC50 in assay [1] is under 100 nM; in assay [1] (setting [3]), 35.6 nM; in assay [2] it was under 100 nM; in assay [2] (setting [3]), 14.4 nM.

With `CCOCC1CC(c2n[nH]cc2CN(C)CCNC)CCC1(C)C` (stereo not shown) [Compound 202], the IC50 is under 100 nM in assay [1], 26.9 nM in assay [1] (setting [3]), under 100 nM in assay [2] and 12.7 nM in assay [2] (setting [3]).

For `CNCCN(C)Cc1c[nH]nc1[C@H]1CC[C@H](N(CCOC)C(=O)CCOc2ccccc2)CC1` [Compound 230], the IC50 in assay [1] is under 100 nM; in assay [1] (setting [3]), 25.7 nM; in assay [2], under 100 nM; in assay [2] (setting [3]), 13.5 nM.

Take `CNCCN(C)Cc1c[nH]nc1[C@H]1CC[C@]2(CCOC2(C)C)CC1` [Compound 253]: the IC50 in assay [1] is under 100 nM; in assay [1] (setting [3]), 11.7 nM; in assay [2] it was under 100 nM; in assay [2] (setting [3]) it was 7.15 nM.

With `CNCCN(C)Cc1c[nH]nc1[C@H]1CC[C@@H](C(=O)NCCOc2ccccc2)CC1` [Compound 212], the IC50 was under 100 nM in assay [1], 8.28 nM in assay [1] (setting [3]), under 100 nM in assay [2] and 5.57 nM in assay [2] (setting [3]).

On to `CCC(=O)N(CCOc1ccccc1)[C@H]1CC[C@@H](c2n[nH]cc2CN(C)CCNC)CC1` [Compound 220], for which the IC50 is under 100 nM in assay [1], 12.9 nM in assay [1] (setting [3]), under 100 nM in assay [2] and 9.29 nM in assay [2] (setting [3]).

`CCC(=O)N(CCOc1ccccc1)[C@H]1CC[C@H](c2n[nH]cc2CN(C)CCNC)CC1` [Compound 221]: the IC50 was under 100 nM in assay [1], 15.4 nM in assay [1] (setting [3]), under 100 nM in assay [2] and 6.44 nM in assay [2] (setting [3]).

Turning to `CCN(C(=O)CCC(C)C)[C@H]1CC[C@@H](c2n[nH]cc2CN(C)CCNC)CC1` [Compound 251], the IC50 was under 100 nM in assay [1], 20.7 nM in assay [1] (setting [3]), under 100 nM in assay [2] and 13.1 nM in assay [2] (setting [3]).

A word on the IC50: it is the concentration at which inhibition is half-maximal.

The values above are taken from US11512053B2, “Arginine methyltransferase inhibitors and uses thereof” (priority 2013, dated 2022).
